The values below come from PMC8064491, “Design and Synthesis of Novel Symmetric Fluorene-2,7-Diamine Derivatives as Potent Hepatitis C Virus Inhibitors” (Pharmaceuticals, 2021).

The test system of data set [1] is HCV subgenomic reporter replicon of genotype 1b (strain Con1). As to the kind of experiment: Anti-HCV 1b activity, luciferase reporter replicon assay in Huh5-2 cells. Type of data set: cell-based, Hepatitis C virus. The conditions noted are these: for fold more potent than six-membered congeners: 1, 9, 17, 21 vs 29, 30, 31, 32 respectively, HCV 1b EC50 ratio; for EC50: Hepatitis C virus, Huh-5-2, 72 h, read-out: HCV Replicon 1b EC50; for HCV Replicon 1b SI50: SI50 = CC50/EC50. The method, then: (§1) The HCV RNA replication inhibitory effect of the novel compounds and their impact on cell viability was tested in the stable cell line Huh5-2 carrying an HCV subgenomic reporter replicon of genotype 1b (strain Con1). The viral replication level was measured in terms of the activity of the co-expressed firefly luciferase (F-Luc). Several concentrations of the tested compounds were prepared in a cell culture medium and were used to treat the cells for 72 h. The solvent DMSO was added as a control with a final concentration of 0.2% so as not to impact viral replication (data not shown). First, different compound concentrations of up to 100 μM were evaluated for their effect on cell viability; results are reported as the median cytotoxic concentration (CC50). Next, all compounds were screened for their anti-HCV activity at a concentration of 1 µM, and compounds showing ≥50% activity were further tested in several concentrations to calculate the median effective concentration (EC50) values (Table 1 and Table 2). The anti-HCV activity of the analogs 1–32 was estimated by quantifying luciferase activity resulting from viral replication. Cytotoxicity was determined by measuring the intracellular levels of ATP. The selectivity index (SI50) was calculated as the ratio of CC50 to EC50 and was calculated as an indication of the compounds’ safety. We used daclatasvir as a positive control.
The stable replicon cell line Huh5-2 (genotype 1b; Con1) (kindly provided by R. Bartenschlager, Heidelberg University, Germany) has been described previously. The stable cell lines Huh7.5-3a and Huh7.5-4a have been constructed with the subgenomic reporter replicons of HCV 3a (S52) S52-SG(Feo)(AII) and HCV 4a (ED43) ED43-SG(Feo)(VYG) (kindly provided by C.M. Rice, The Rockefeller University, NY). Cells were cultured in high glucose (25 mM) Dulbecco’s modified minimal essential medium (Invitrogen), supplemented with 2 mM L-glutamine, 0.1 mM non-essential amino acids, 100 U/mL penicillin, 100 µg/mL streptomycin, and 10% (v/v) fetal calf serum (referred to as complete DMEM). Complete DMEM was supplemented with G418 at 500 μg/mL for Huh5-2, 750 μg/mL for Huh7.5-3a, and 350 μg/mL for Huh7.5-4a.
(§2) Cells were treated with serial dilutions of the test compounds or the solvent DMSO for 72 h. Antiviral activity and cytotoxicity were determined by measuring virus-derived luciferase activity or intracellular ATP levels, respectively. The median effective concentration (EC50) of the compounds, reducing luciferase signal by 50%, and their median cytotoxic concentration (CC50), causing 50% cell death, were determined by nonlinear regression analysis using the Prism 6.0 software (GraphPad Software Inc.). Daclatasvir was kindly provided by Dr. Marc Windisch (Institut Pasteur Korea).
Firefly luciferase activity was measured using Luciferase Assay System (Promega), according to the manufacturer’s instructions. Measurements were performed with a GloMax 20/20 single tube luminometer (Promega) for 10 s. Values were normalized to total protein amounts as quantified by Bradford assay (Pierce).
(A reporter such as luciferase makes a cellular process visible.)

The nature of data set [2]: Cytotoxicity by intracellular ATP levels. The conditions noted are these: human, Huh5-2 cells, read-out: HCV Replicon 1b CC50. The class given is cell-based. The method, then:
as §1, §2
ATP was measured using the ViaLight HS BioAssay kit (Lonza) according to the manufacturer’s protocol in a GloMax 20/20 single-tube luminometer (Promega) for 1 s. Values were normalized to total protein amounts.
On the technique in general: A replicon is a self-replicating genome or part of one, used to study replication in cells.

The structures appear in SMILES notation.

Turning to `COC(=O)N[C@H](C(=O)N1CCC[C@H]1C(=O)Nc1ccc2c(c1)Cc1cc(NC(=O)[C@@H]3CCCN3C(=O)[C@@H](NC(=O)OC)C(C)C)ccc1-2)C(C)C` [Compound 1, Dimethyl((2S,2’S)-((2S,2’S)-(((9H-fluorene-2,7-diyl)bis(azanediyl))bis(carbonyl))bis(pyrrolidine-2,1-diyl))bis(3-methyl-1-oxobutane-1,2-diyl))dicarbamate], in data set [1], the “fold more potent than six-membered congeners” value is recorded as “five”.
What is called EC50 is the concentration giving half of the maximal effect. Broadly, the CC50 is the concentration that lowers cell viability or growth by half. `CCOC(=O)N[C@H](C(=O)N1CCC[C@H]1C(=O)Nc1ccc2c(c1)Cc1cc(NC(=O)[C@@H]3CCCN3C(=O)[C@@H](NC(=O)OCC)C(C)C)ccc1-2)C(C)C` [Compound 2, Diethyl((2S,2’S)-((2S,2’S)-(((9H-fluorene-2,7-diyl)bis(azanediyl))bis(carbonyl))bis(pyrrolidine-2,1-diyl))bis(3-methyl-1-oxobutane-1,2-diyl))dicarbamate]: the EC50 in data set [1] was greater than 1000 nM. Besides, in data set [2], the 50% cytotoxic concentration (CC50) at 72 h was greater than 100 µM.
The like results for `CCCCOC(=O)N[C@H](C(=O)N1CCC[C@H]1C(=O)Nc1ccc2c(c1)Cc1cc(NC(=O)[C@@H]3CCCN3C(=O)[C@@H](NC(=O)OCCCC)C(C)C)ccc1-2)C(C)C` [Compound 3, Dibutyl((2S,2’S)-((2S,2’S)-(((9H-fluorene-2,7-diyl)bis(azanediyl))bis(carbonyl))bis(pyrrolidine-2,1-diyl))bis(3-methyl-1-oxobutane-1,2-diyl))dicarbamate] were, in that order, greater than 1000 nM and greater than 100 µM.
Consider `CC(C)[C@H](NC(=O)OCc1ccccc1)C(=O)N1CCC[C@H]1C(=O)Nc1ccc2c(c1)Cc1cc(NC(=O)[C@@H]3CCCN3C(=O)[C@@H](NC(=O)OCc3ccccc3)C(C)C)ccc1-2` [Compound 4, Dibenzyl ((2S,2’S)-((2S,2’S)-(((9H-fluorene-2,7-diyl)bis(azanediyl))bis(carbonyl))bis(pyrrolidine-2,1-diyl))bis(3-methyl-1-oxobutane-1,2-diyl))dicarbamate], for which, in data set [1], the concentration giving a half-maximal response (EC50) is 967 nM and the “HCV Replicon 1b SI50” value is listed as greater than 103. Also, the CC50 at 72 h in data set [2] is greater than 100 µM.
For `COC(=O)N[C@@H](C(=O)N1CCC[C@H]1C(=O)Nc1ccc2c(c1)Cc1cc(NC(=O)[C@@H]3CCCN3C(=O)[C@H](NC(=O)OC)C(C)C)ccc1-2)C(C)C` [Compound 5, Dimethyl ((2R,2’R)-((2S,2’S)-(((9H-fluorene-2,7-diyl)bis(azanediyl))bis(carbonyl))bis(pyrrolidine-2,1-diyl))bis(3-methyl-1-oxobutane-1,2-diyl))dicarbamate], in that order: 801 nM, greater than 125 and greater than 100 µM.
As to `CCOC(=O)N[C@@H](C(=O)N1CCC[C@H]1C(=O)Nc1ccc2c(c1)Cc1cc(NC(=O)[C@@H]3CCCN3C(=O)[C@H](NC(=O)OCC)C(C)C)ccc1-2)C(C)C` [Compound 6, Diethyl((2R,2’R)-((2S,2’S)-(((9H-fluorene-2,7-diyl)bis(azanediyl))bis(carbonyl))bis(pyrrolidine-2,1-diyl))bis(3-methyl-1-oxobutane-1,2-diyl))dicarbamate], in data set [1], the concentration giving a half-maximal response (EC50) turned out to be 102 nM and the “HCV Replicon 1b SI50” value is given as 780. Also, the 50% cytotoxic concentration (CC50) at 72 h in data set [2] was determined as 79.5 µM.
For `CCCCOC(=O)N[C@@H](C(=O)N1CCC[C@H]1C(=O)Nc1ccc2c(c1)Cc1cc(NC(=O)[C@@H]3CCCN3C(=O)[C@H](NC(=O)OCCCC)C(C)C)ccc1-2)C(C)C` [Compound 7, Dibutyl((2R,2’R)-((2S,2’S)-(((9H-fluorene-2,7-diyl)bis(azanediyl))bis(carbonyl))bis(pyrrolidine-2,1-diyl))bis(3-methyl-1-oxobutane-1,2-diyl))dicarbamate], in that order: 981 nM, greater than 102 and greater than 100 µM.
For `CC(C)[C@@H](NC(=O)OCc1ccccc1)C(=O)N1CCC[C@H]1C(=O)Nc1ccc2c(c1)Cc1cc(NC(=O)[C@@H]3CCCN3C(=O)[C@H](NC(=O)OCc3ccccc3)C(C)C)ccc1-2` [Compound 8, Dibenzyl((2R,2’R)-((2S,2’S)-(((9H-fluorene-2,7-diyl)bis(azanediyl))bis(carbonyl))bis(pyrrolidine-2,1-diyl))bis(3-methyl-1-oxobutane-1,2-diyl))dicarbamate], in that order: 45.4 nM, greater than 2202 and greater than 100 µM.
On to `COC(=O)N[C@H](CC(C)C)C(=O)N1CCC[C@H]1C(=O)Nc1ccc2c(c1)Cc1cc(NC(=O)[C@@H]3CCCN3C(=O)[C@@H](CC(C)C)NC(=O)OC)ccc1-2` [Compound 13, Dimethyl((2R,2’R)-((2S,2’S)-(((9H-fluorene-2,7-diyl)bis(azanediyl))bis(carbonyl))bis(pyrrolidine-2,1-diyl))bis(4-methyl-1-oxopentane-1,2-diyl))dicarbamate], for which, in data set [1], the half-maximal effective concentration (EC50) amounted to 0.081 nM and the “HCV Replicon 1b SI50” value was >1,238,850. The CC50 at 72 h in data set [2] is greater than 100 µM.
For `CCOC(=O)N[C@H](CC(C)C)C(=O)N1CCC[C@H]1C(=O)Nc1ccc2c(c1)Cc1cc(NC(=O)[C@@H]3CCCN3C(=O)[C@@H](CC(C)C)NC(=O)OCC)ccc1-2` [Compound 14, Diethyl ((2R,2’R)-((2S,2’S)-(((9H-fluorene-2,7-diyl)bis(azanediyl))bis(carbonyl))bis(pyrrolidine-2,1-diyl))bis(4-methyl-1-oxopentane-1,2-diyl))dicarbamate], in that order: 2.55 nM, >39,185 and greater than 100 µM.
As to `CCCCOC(=O)N[C@H](CC(C)C)C(=O)N1CCC[C@H]1C(=O)Nc1ccc2c(c1)Cc1cc(NC(=O)[C@@H]3CCCN3C(=O)[C@@H](CC(C)C)NC(=O)OCCCC)ccc1-2` [Compound 15, Dibutyl((2R,2’R)-((2S,2’S)-(((9H-fluorene-2,7-diyl)bis(azanediyl))bis(carbonyl))bis(pyrrolidine-2,1-diyl))bis(4-methyl-1-oxopentane-1,2-diyl))dicarbamate], the concentration giving a half-maximal response (EC50) in data set [1] is greater than 1000 nM. Besides, in data set [2], the CC50 at 72 h was 34.2 µM.
On to `CC(C)C[C@@H](NC(=O)OCc1ccccc1)C(=O)N1CCC[C@H]1C(=O)Nc1ccc2c(c1)Cc1cc(NC(=O)[C@@H]3CCCN3C(=O)[C@@H](CC(C)C)NC(=O)OCc3ccccc3)ccc1-2` [Compound 16, Dibenzyl((2R,2’R)-((2S,2’S)-(((9H-fluorene-2,7-diyl)bis(azanediyl))bis(carbonyl))bis(pyrrolidine-2,1-diyl))bis(4-methyl-1-oxopentane-1,2-diyl))dicarbamate], for which the EC50 in data set [1] was greater than 1000 nM. In addition, the CC50 at 72 h in data set [2] was greater than 100 µM.
As to `COC(=O)N[C@H](C(=O)N1CCC[C@H]1C(=O)Nc1ccc2c(c1)Cc1cc(NC(=O)[C@@H]3CCCN3C(=O)[C@@H](NC(=O)OC)c3ccccc3)ccc1-2)c1ccccc1` [Compound 21, Dimethyl((1S,1’S)-((2S,2’S)-(((9H-fluorene-2,7diyl)bis(azanediyl))bis(carbonyl))bis(pyrrolidine-2,1-diyl))bis(2-oxo-1-phenylethane-2,1-diyl))dicarbamate], in data set [1], the “fold more potent than six-membered congeners” value turned out to be 36 fold, the EC50 came out at 8.5 nM and the “HCV Replicon 1b SI50” value is 10,298. Further, the CC50 at 72 h in data set [2] turned out to be 87.5 µM.
On to `CCOC(=O)N[C@H](C(=O)N1CCC[C@H]1C(=O)Nc1ccc2c(c1)Cc1cc(NC(=O)[C@@H]3CCCN3C(=O)[C@@H](NC(=O)OCC)c3ccccc3)ccc1-2)c1ccccc1` [Compound 22, Diethyl((1S,1’S)-((2S,2’S)-(((9H-fluorene-2,7-diyl)bis(azanediyl))bis(carbonyl))bis(pyrrolidine-2,1-diyl))bis(2-oxo-1-phenylethane-2,1-diyl))dicarbamate], for which, in data set [1], the EC50 is 7.49 nM and the “HCV Replicon 1b SI50” value was >13,349. For the same molecule, the CC50 at 72 h in data set [2] is greater than 100 µM.
